Source: ChEMBL document CHEMBL2440076, “New triarylpyrazoles as broad-spectrum anticancer agents: design, synthesis, and biological evaluation” (Eur J Med Chem, 2013)

What was measured:
[1] = Growth inhibition of human HCC2998 cells assessed as cell growth at 10 uM after 48 hrs by sulforhodamine B assay; format: functional; conditions: HCC 2998, 48 h, read-out: Activity
K562 = experiment: Growth inhibition of human K562 cells after 48 hrs by sulforhodamine B assay; format: functional; conditions: K562, 48 h; for CC50: read-out: LC50 (the source's name)
U-251 = experiment: Growth inhibition of human U251 cells assessed as cell growth at 10 uM after 48 hrs by sulforhodamine B assay; format: functional; conditions: U-251, 48 h, read-out: Activity
PC-3 = experiment: Growth inhibition of human PC3 cells assessed as cell growth at 10 uM after 48 hrs by sulforhodamine B assay; format: functional; conditions: PC-3, 48 h, read-out: Activity
OVCAR-4 = experiment: Growth inhibition of human OVCAR4 cells assessed as cell growth at 10 uM after 48 hrs by sulforhodamine B assay; format: functional; conditions: OVCAR-4, 48 h, read-out: Activity
RXF 393 = experiment: Growth inhibition of human RXF393 cells after 48 hrs by sulforhodamine B assay; format: functional; conditions: RXF 393, 48 h
NCI-H522 = experiment: Growth inhibition of human NCI-H522 cells assessed as cell growth at 10 uM after 48 hrs by sulforhodamine B assay; format: functional; conditions: NCI-H522, 48 h, read-out: Activity
SK-MEL-28 = experiment: Growth inhibition of human SK-MEL-28 cells after 48 hrs by sulforhodamine B assay; format: functional; conditions: SK-MEL-28, 48 h
MDA-MB-468 = experiment: Growth inhibition of human MDA-MB-468 cells assessed as cell growth at 10 uM after 48 hrs by sulforhodamine B assay; format: functional; conditions: MDA-MB-468, 48 h, read-out: Activity
COLO 205 = experiment: Growth inhibition of human COLO205 cells after 48 hrs by sulforhodamine B assay; format: functional; conditions: COLO 205, 48 h
MDA-MB-435 = experiment: Growth inhibition of human MDA-MB-435 cells after 48 hrs by sulforhodamine B assay; format: functional, cell-based; conditions: MDA-MB-435, 48 h; for CC50: read-out: LC50 (the source's name)
SK-OV-3 = experiment: Growth inhibition of human SKOV3 cells assessed as cell growth at 10 uM after 48 hrs by sulforhodamine B assay; format: functional; conditions: SK-OV-3, 48 h, read-out: Activity
T47D [2] = experiment: Growth inhibition of human T47D cells assessed as cell growth at 10 uM after 48 hrs by sulforhodamine B assay; format: functional; conditions: read-out: Activity
RPMI-8226 = experiment: Growth inhibition of human RPMI8226 cells assessed as cell growth at 10 uM after 48 hrs by sulforhodamine B assay; format: functional; conditions: RPMI-8226, 48 h, read-out: Activity
A498 = experiment: Growth inhibition of human A498 cells assessed as cell growth at 10 uM after 48 hrs by sulforhodamine B assay; format: functional; conditions: A498, 48 h, read-out: Activity
BT-549 [3] = experiment: Growth inhibition of human BT549 cells assessed as cell growth at 10 uM after 48 hrs by sulforhodamine B assay; format: functional; conditions: BT-549, 48 h, read-out: Activity
HT-29 = experiment: Growth inhibition of human HT-29 cells after 48 hrs by sulforhodamine B assay; format: functional; conditions: HT-29, 48 h; for CC50: read-out: LC50 (the source's name)
T47D [4] = experiment: Growth inhibition of human T47D cells after 48 hrs by sulforhodamine B assay; format: functional; conditions: for CC50: read-out: LC50 (the source's name)
MOLT-4 = experiment: Growth inhibition of human MOLT4 cells assessed as cell growth at 10 uM after 48 hrs by sulforhodamine B assay; format: functional; conditions: MOLT-4, 48 h, read-out: Activity
TK-10 = experiment: Growth inhibition of human TK10 cells assessed as cell growth at 10 uM after 48 hrs by sulforhodamine B assay; format: functional; conditions: TK-10, 48 h, read-out: Activity
KM12 = experiment: Growth inhibition of human KM12 cells assessed as cell growth at 10 uM after 48 hrs by sulforhodamine B assay; format: functional; conditions: KM12, 48 h, read-out: Activity
A549 = experiment: Growth inhibition of human A549/ATCC cells assessed as cell growth at 10 uM after 48 hrs by sulforhodamine B assay; format: functional; conditions: A549, 48 h, read-out: Activity
MDA-MB-231 = experiment: Growth inhibition of human MDA-MB-231 cells after 48 hrs by sulforhodamine B assay; format: functional; conditions: MDA-MB-231, 48 h
SNB-19 = experiment: Growth inhibition of human SNB19 cells after 48 hrs by sulforhodamine B assay; format: functional; conditions: SNB-19, 48 h
HCT-15 = experiment: Growth inhibition of human HCT15 cells assessed as cell growth at 10 uM after 48 hrs by sulforhodamine B assay; format: functional; conditions: HCT-15, 48 h, read-out: Activity
BT-549 [5] = experiment: Growth inhibition of human BT549 cells after 48 hrs by sulforhodamine B assay; format: functional; conditions: BT-549, 48 h
SN12C = experiment: Growth inhibition of human SN12C cells assessed as cell growth at 10 uM after 48 hrs by sulforhodamine B assay; format: functional; conditions: read-out: Activity
NCI-H460 = experiment: Growth inhibition of human NCI-H460 cells assessed as cell growth at 10 uM after 48 hrs by sulforhodamine B assay; format: functional; conditions: NCI-H460, 48 h, read-out: Activity
HOP-62 = experiment: Growth inhibition of human HOP62 cells assessed as cell growth at 10 uM after 48 hrs by sulforhodamine B assay; format: functional; conditions: HOP-62, 48 h, read-out: Activity
CAKI-1 = experiment: Growth inhibition of human CAKI-1 cells after 48 hrs by sulforhodamine B assay; format: functional; conditions: CAKI-1, 48 h; for CC50: read-out: LC50 (the source's name)
SK-MEL-2 = experiment: Growth inhibition of human SK-MEL-2 cells after 48 hrs by sulforhodamine B assay; format: functional; conditions: SK-MEL-2, 48 h
NCI-H23 = experiment: Growth inhibition of human NCI-H23 cells after 48 hrs by sulforhodamine B assay; format: functional; conditions: NCI-H23, 48 h
SK-MEL-5 = experiment: Growth inhibition of human SK-MEL-5 cells assessed as cell growth at 10 uM after 48 hrs by sulforhodamine B assay; format: functional; conditions: SK-MEL-5, 48 h, read-out: Activity
[6] = Growth inhibition of human Hs 578T cells assessed as cell growth at 10 uM after 48 hrs by sulforhodamine B assay; format: functional; conditions: read-out: Activity

SMILES: O=C(Nc1cccc(-n2cc(-c3ccncc3)c(-c3ccc(Cl)c(O)c3)n2)c1)c1ccc(N2CCOCC2)c(C(F)(F)F)c1
- growth at 10 µM [1]: 56.4%
- GI50 (K562): 1.88 µM
- TGI (K562): > 50 µM
- CC50 (K562): > 50 µM
- growth at 10 µM (U-251): 11.8%
- growth at 10 µM (PC-3): 27.2%
- growth at 10 µM (OVCAR-4): 108%
- GI50 (RXF 393): 0.626 µM
- LC50 (concentration killing 50% of cells) (RXF 393): > 50 µM
- TGI (RXF 393): 2.9 µM
- growth at 10 µM (NCI-H522): 39.6%
- GI50 (SK-MEL-28): 1.5 µM
- LC50 (SK-MEL-28): 42.9 µM
- TGI (SK-MEL-28): 6.04 µM
- growth at 10 µM (MDA-MB-468): 66%
- GI50 (COLO 205): > 50 µM
- LC50 (concentration killing 50% of cells) (COLO 205): > 50 µM
- TGI (COLO 205): > 50 µM
- GI50 (MDA-MB-435): 2.04 µM
- IC50 (MDA-MB-435): 2.04 µM
- TGI (MDA-MB-435): > 50 µM
- CC50 (MDA-MB-435): > 50 µM
- growth at 10 µM (SK-OV-3): 74.2%
- growth at 10 µM (T47D [2]): 69.4%
- growth at 10 µM (RPMI-8226): 5.19%
- growth at 10 µM (A498): 101%
- growth at 10 µM (BT-549 [3]): 63.6%
- GI50 (HT-29): 14.4 µM
- TGI (HT-29): > 50 µM
- CC50 (HT-29): > 50 µM
- GI50 (T47D [4]): 35.9 µM
- TGI (T47D [4]): > 50 µM
- CC50 (T47D [4]): > 50 µM
- growth at 10 µM (MOLT-4): 29.1%
- growth at 10 µM (TK-10): 119%
- growth at 10 µM (KM12): 30.6%
- growth at 10 µM (A549): 31.4%
- GI50 (MDA-MB-231): 0.975 µM
- LC50 (MDA-MB-231): > 50 µM
- TGI (MDA-MB-231): 15.6 µM
- GI50 (SNB-19): 4.11 µM
- LC50 (concentration killing 50% of cells) (SNB-19): > 50 µM
- TGI (SNB-19): > 50 µM
- growth at 10 µM (HCT-15): 26.2%
- GI50 (BT-549 [5]): 19.4 µM
- LC50 (50% lethal concentration) (BT-549 [5]): > 50 µM
- TGI (BT-549 [5]): > 50 µM
- growth at 10 µM (SN12C): 73.9%
- growth at 10 µM (NCI-H460): 5.81%
- growth at 10 µM (HOP-62): 40.4%
- GI50 (CAKI-1): 2.78 µM
- TGI (CAKI-1): 24.6 µM
- CC50 (CAKI-1): > 50 µM
- GI50 (SK-MEL-2): 2.89 µM
- LC50 (50% lethal concentration) (SK-MEL-2): > 50 µM
- TGI (SK-MEL-2): 15.3 µM
- GI50 (NCI-H23): 4.2 µM
- LC50 (NCI-H23): > 50 µM
- TGI (NCI-H23): 30.1 µM
- growth at 10 µM (SK-MEL-5): 50.8%
- growth at 10 µM [6]: 15.5%

SMILES: COc1cc(-c2nn(-c3cccc(NC(=O)Nc4ccc(Cl)c(C(F)(F)F)c4)c3)cc2-c2ccncc2)ccc1Cl
- growth at 10 µM [1]: 8.88%
- GI50 (K562): 1.21 µM
- TGI (K562): > 32.5 µM
- CC50 (K562): > 32.5 µM
- growth at 10 µM (U-251): -20.9%
- growth at 10 µM (PC-3): -19.1%
- growth at 10 µM (OVCAR-4): 20.8%
- GI50 (RXF 393): 1.18 µM
- LC50 (concentration killing 50% of cells) (RXF 393): > 32.5 µM
- TGI (RXF 393): 6.29 µM
- growth at 10 µM (NCI-H522): -13.9%
- GI50 (SK-MEL-28): 1.2 µM
- LC50 (SK-MEL-28): 19.1 µM
- TGI (SK-MEL-28): 5.01 µM
- growth at 10 µM (MDA-MB-468): -7.22%
- GI50 (COLO 205): 0.711 µM
- LC50 (concentration killing 50% of cells) (COLO 205): 3.48 µM
- TGI (COLO 205): 1.54 µM
- GI50 (MDA-MB-435): 0.683 µM
- IC50 (MDA-MB-435): 0.68 µM
- TGI (MDA-MB-435): 1.69 µM
- CC50 (MDA-MB-435): > 32.5 µM
- growth at 10 µM (SK-OV-3): 0.43%
- growth at 10 µM (T47D [2]): 0.62%
- growth at 10 µM (RPMI-8226): -8.66%
- growth at 10 µM (A498): -6.71%
- growth at 10 µM (BT-549 [3]): 7.16%
- GI50 (HT-29): 1.19 µM
- TGI (HT-29): 4.45 µM
- CC50 (HT-29): 21.5 µM
- GI50 (T47D [4]): 1.23 µM
- TGI (T47D [4]): > 32.5 µM
- CC50 (T47D [4]): > 32.5 µM
- growth at 10 µM (MOLT-4): -2.38%
- growth at 10 µM (TK-10): 12.6%
- growth at 10 µM (KM12): 2.88%
- growth at 10 µM (A549): -10.4%
- GI50 (MDA-MB-231): 0.76 µM
- LC50 (MDA-MB-231): 13.3 µM
- TGI (MDA-MB-231): 2.6 µM
- GI50 (SNB-19): 1.24 µM
- LC50 (concentration killing 50% of cells) (SNB-19): > 32.5 µM
- TGI (SNB-19): 9.24 µM
- growth at 10 µM (HCT-15): 9.91%
- GI50 (BT-549 [5]): 2.36 µM
- LC50 (50% lethal concentration) (BT-549 [5]): > 32.5 µM
- TGI (BT-549 [5]): 10.2 µM
- growth at 10 µM (SN12C): 12.6%
- growth at 10 µM (NCI-H460): 1.7%
- growth at 10 µM (HOP-62): 5.4%
- GI50 (CAKI-1): 0.992 µM
- TGI (CAKI-1): 4.72 µM
- CC50 (CAKI-1): > 32.5 µM
- GI50 (SK-MEL-2): 1.01 µM
- LC50 (50% lethal concentration) (SK-MEL-2): 17.5 µM
- TGI (SK-MEL-2): 2.58 µM
- GI50 (NCI-H23): 1.31 µM
- LC50 (NCI-H23): > 32.5 µM
- TGI (NCI-H23): 8.03 µM
- growth at 10 µM (SK-MEL-5): -65.3%
- growth at 10 µM [6]: 2.21%
